Values belong to the compound of their own block, whether it stands above or below them.
Columns and labels:
[1] = target: T1, protein kinase B (PKB), fusion protein PKB-PIF (Homo sapiens, UniProt P31751); assay: PKB kinase inhibitory activity, in vitro radiometric assay; assay type: biochemical; conditions: (radiometric) binding assay, relative to the other enantiomer
T1 construct: made in house
Source text: The inhibition of protein kinase B (PKB) activity by compounds can be determined essentially as described by Andjelkovic et al. (Mol. Cell. Biol. 19, 5061-5072 (1999)) but using a fusion protein described as PKB-PIF and described in full by Yang et al (Nature Structural Biology 9, 940-944 (2002)). The protein is purified and activated with PDK1 as described by Yang et al. The peptide AKTide-2T (H-A-R—K—R-E-R-T-Y—S—F-G-H—H-A-OH) obtained from Calbiochem (#123900) is used as a substrate. A final concentration of 0.6 nM enzyme is used in a buffer that includes 20 mM MOPS pH 7.2, 30 μM ATP/γ^33P-ATP and 25 μM substrate. Compounds are added in DMSO solution to a final DMSO concentration of 2.5%. The reaction is allowed to proceed for 20 minutes before addition of excess orthophosphoric acid to quench activity. The reaction mixture is transferred to a phosphocellulose filter plate where the peptide binds and the unused ATP is washed away. After washing, scintillant is added and the incorporated activity measured by scintillation counting.

[2] = target: T2, PKA catalytic domain (Homo sapiens, UniProt P17612); assay: PKA kinase inhibitory activity, radiometric assay; assay type: biochemical
T2 construct: using the PKA catalytic domain from Upstate Biotechnology (#14-440); purchased Upstate Biotechnology 14-440
Experimental: A final concentration of 1 nM enzyme is used in a buffer that includes 20 mM MOPS pH 7.2, 40 μM ATP/γ^33P-ATP and […] substrate. Compounds are added in dimethylsulphoxide (DMSO) solution to a final DMSO concentration of 2.5%. The reaction is allowed to proceed for 20 minutes before addition of excess orthophosphoric acid to quench activity. Unincorporated γ^33P-ATP is then separated from phosphorylated proteins on a Millipore MAPH filter plate. The plates are washed, scintillant is added and the plates are then subjected to counting on a Packard Topcount.

[3] = target: T3, CYP450 1A2 (Homo sapiens, UniProt P05177); assay: Potency against cytochrome P450 1A2 (Vivid screening kit); assay type: in vitro ADME; conditions: tested at a concentration of 10 μM
T3 construct: purchased Invitrogen (Paisley, UK), Pan Vera Vivid screening kits; host or cells: baculosomes
T3 sequence (P05177 1-516): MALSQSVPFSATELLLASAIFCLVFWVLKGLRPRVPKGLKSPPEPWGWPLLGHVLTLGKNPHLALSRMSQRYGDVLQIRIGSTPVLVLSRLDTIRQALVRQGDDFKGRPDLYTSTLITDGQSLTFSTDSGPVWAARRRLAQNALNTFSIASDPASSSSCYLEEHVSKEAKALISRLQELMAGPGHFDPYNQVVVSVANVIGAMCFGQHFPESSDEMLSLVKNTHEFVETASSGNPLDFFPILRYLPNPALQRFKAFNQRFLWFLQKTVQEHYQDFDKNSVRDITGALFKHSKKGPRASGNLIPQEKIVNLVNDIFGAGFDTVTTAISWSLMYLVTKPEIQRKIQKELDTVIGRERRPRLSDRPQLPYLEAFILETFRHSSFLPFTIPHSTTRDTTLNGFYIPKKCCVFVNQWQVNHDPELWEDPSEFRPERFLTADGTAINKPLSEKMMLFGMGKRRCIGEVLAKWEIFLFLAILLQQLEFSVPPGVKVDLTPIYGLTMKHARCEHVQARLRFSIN
Experimental: (§1) The potency of the compound of Example 1 against cytochrome P450 (CYP450) enzymes 1A2, 2C9, 2C19, 3A4 and 2D6 was determined using the Pan Vera Vivid C450 screening kits available from Invitrogen (Paisley, UK). The CYP450s were supplied in the form of baculosomes containing the CYP450 and NADPH reductase and the substrates used were the fluorescent Vivid substrates. The final reaction mixtures were as follows:
100 mM potassium phosphate, pH 8, 1% acetonitrile, 2 μM 1A2 Blue vivid substrate, 100 μM NADP^+, 4 nM CYP450 1A2, 2.66 mM glucose-6-phosphate, 0.32 U/ml glucose-6-phosphate dehydrogenase.
(§2) Fluorescence was monitored for 20 minutes at 30 second intervals on a Fluoroskan fluorescence plate reader. The excitation and emission wavelengths were 390 nm and 460 nm for 1A2, 2C19 and 3A4, 390 nm and 485 nm for 2D6 and 485 nm and 530 nm for 2C9. Initial rates were determined from progress curves.
(§3) The test compound was made up in acetonitrile and tested against the CYP450s at a concentration of 10 μM.

[4] = target: T4, CYP450 2C9 (Homo sapiens, UniProt P11712); assay: Potency against cytochrome P450 2C9 (Vivid screening kit); assay type: in vitro ADME; conditions: tested at a concentration of 10 μM
T4 construct: purchased Invitrogen (Paisley, UK), Pan Vera Vivid screening kits; host or cells: baculosomes
T4 sequence (P11712 whole entry): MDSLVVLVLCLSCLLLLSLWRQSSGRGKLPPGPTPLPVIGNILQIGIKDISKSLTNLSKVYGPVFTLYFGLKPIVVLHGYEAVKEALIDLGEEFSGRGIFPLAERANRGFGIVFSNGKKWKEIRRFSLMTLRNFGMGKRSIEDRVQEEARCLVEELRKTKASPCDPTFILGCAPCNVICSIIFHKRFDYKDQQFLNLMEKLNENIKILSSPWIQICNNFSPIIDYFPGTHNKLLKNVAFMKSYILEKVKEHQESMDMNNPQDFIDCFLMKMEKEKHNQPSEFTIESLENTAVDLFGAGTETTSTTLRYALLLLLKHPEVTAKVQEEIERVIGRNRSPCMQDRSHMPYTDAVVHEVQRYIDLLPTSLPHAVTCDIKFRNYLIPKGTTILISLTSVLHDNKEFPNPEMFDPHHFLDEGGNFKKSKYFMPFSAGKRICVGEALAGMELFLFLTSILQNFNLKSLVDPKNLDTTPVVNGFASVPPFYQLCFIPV
Experimental: as §1
50 mM potassium phosphate, pH 8, 1% acetonitrile, 2 μM Green vivid substrate, 100 μM NADP^+, 8 nM CYP450 2C9, 2.66 mM glucose-6-phosphate, 0.32 U/ml glucose-6-phosphate dehydrogenase.
as §2, §3

[5] = target: T5, CYP450 2C19 (Homo sapiens, UniProt P33261); assay: Potency against cytochrome P450 2C19 (Vivid screening kit); assay type: in vitro ADME; conditions: tested at a concentration of 10 μM
T5 construct: purchased Invitrogen (Paisley, UK), Pan Vera Vivid screening kits; host or cells: baculosomes
T5 sequence (P33261 whole entry): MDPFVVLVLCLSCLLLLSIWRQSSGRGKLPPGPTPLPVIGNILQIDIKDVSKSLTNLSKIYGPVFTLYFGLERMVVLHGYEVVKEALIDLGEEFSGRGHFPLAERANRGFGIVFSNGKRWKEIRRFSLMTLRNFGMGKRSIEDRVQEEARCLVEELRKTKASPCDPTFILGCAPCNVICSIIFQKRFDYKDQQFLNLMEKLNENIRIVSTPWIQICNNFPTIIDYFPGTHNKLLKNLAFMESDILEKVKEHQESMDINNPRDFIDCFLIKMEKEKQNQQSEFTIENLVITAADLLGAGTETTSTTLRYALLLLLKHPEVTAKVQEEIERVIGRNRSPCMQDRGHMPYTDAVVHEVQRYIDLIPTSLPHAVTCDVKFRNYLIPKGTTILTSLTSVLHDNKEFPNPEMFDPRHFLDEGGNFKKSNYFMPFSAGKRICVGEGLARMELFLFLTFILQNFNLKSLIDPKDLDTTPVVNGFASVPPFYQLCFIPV
Experimental: as §1
50 mM potassium phosphate, pH 8, 1% acetonitrile, 8 μM Blue vivid substrate, 100 μM NADP^+, 4 nM CYP450 2C19, 2.66 mM glucose-6-phosphate, 0.32 U/ml glucose-6-phosphate dehydrogenase.
as §2, §3

[6] = target: T6, CYP450 2D6 (Homo sapiens, UniProt P10635); assay: Potency against cytochrome P450 2D6 (Vivid screening kit); assay type: in vitro ADME; conditions: tested at a concentration of 10 μM
T6 construct: purchased Invitrogen (Paisley, UK), Pan Vera Vivid screening kits; host or cells: baculosomes
T6 sequence (P10635 whole entry): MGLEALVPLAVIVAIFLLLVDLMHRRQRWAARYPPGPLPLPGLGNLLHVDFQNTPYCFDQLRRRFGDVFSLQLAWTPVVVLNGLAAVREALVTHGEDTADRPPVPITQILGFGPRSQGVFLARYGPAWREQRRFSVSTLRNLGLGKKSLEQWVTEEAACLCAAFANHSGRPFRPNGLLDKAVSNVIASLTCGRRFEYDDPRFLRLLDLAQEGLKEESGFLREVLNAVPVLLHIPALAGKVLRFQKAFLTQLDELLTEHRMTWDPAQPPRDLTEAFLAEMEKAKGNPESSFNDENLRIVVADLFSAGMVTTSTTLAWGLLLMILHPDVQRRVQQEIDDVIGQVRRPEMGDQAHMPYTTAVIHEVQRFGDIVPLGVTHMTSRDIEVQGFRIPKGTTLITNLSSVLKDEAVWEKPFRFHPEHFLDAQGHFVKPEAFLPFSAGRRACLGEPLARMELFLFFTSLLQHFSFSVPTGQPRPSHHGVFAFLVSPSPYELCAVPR
Experimental: as §1
100 mM potassium phosphate, pH 8, 1% acetonitrile, 5 μM 2D6 Blue vivid substrate, 100 μM NADP^+, 16 nM CYP450 2D6, 2.66 mM glucose-6-phosphate, 0.32 U/ml glucose-6-phosphate dehydrogenase.
as §2, §3

[7] = tested on: phosphorylation of GSK3β on serine 9 in U87MG cells; assay: Cell based phospho-Ser9 GSK3β ELISA (mechanistic cellular assay); conditions: for activity in mechanistic cellular ELISA assay: result in words
Experimental: The effect on inhibiting PKB in U87MG cells is determined by the ability of compounds to inhibit phosphorylation of the direct downstream substrate GSK3β on serine 9. Cells are plated in 96 well plates and allowed to recover overnight prior to addition of the inhibitor compound for 1 hour. After 1 hour, cell are fixed and blocked with 3% paraformaldehyde, 0.25% gluteraldehyde, 0.25% Triton X100 and 5% Marvel in TBS-T. Following this cells are incubated with primary antibody directed to the phosphorylated form of GSK3β (Cell Signaling) overnight at 4° C. After washing, cells are incubated with secondary antibody using the DELFIA reagents (Eu—N1 anti-rabbit IgG antibody) for 1 h, and following enhancement plates are read on a time-resolved fluorescence reader at excitation 340 nm and emission 640 nm. All cells are obtained from ECACC (European Collection of Cell Cultures).
1. U87MG cells plated at 12,500 cells/well in 160 ul media/well in a 96 well plate
2. Incubate for 24 hours at 37° C.
3. Treat cells with the inhibitor and DMSO control
4. Incubate for 1 hour at 37° C.
5. Media flicked from the plate and blot on paper
6. 100 μl fixing solution added to each well (3% paraformaldehyde, 0.25% gluteraldehyde, 0.25% Triton X100)
7. Incubate for 30 minutes at 37° C.
8. Wash 1× with water/0.1% Tween20
9. Block with 100 μl 5% milk/TBS-T
10. Incubate for 30 minutes at 37° C.
11. 100 μl primary antibody diluted in 5% milk/TBS-T added to each well (CST #9336 Phospho-Ser9 GSK3β antibody used at 1:250)
• include a column control with no 1 ab—just 5% milk/TBS-T • can also include a column of Zymed rabbit IgG (02-6102-5 mg/mL) control diluted in 5% milk/TBS-T to the same concentration as the phospho-Ser9 GSK3β if required 12. Incubate overnight at 4° C. 13. Wash 3× with water/0.1% Tween20 14. 100 μl secondary antibody diluted in Delfia Assay Buffer added to each well (Delfia Eu—N1 anti-rabbit IgG antibody used at 0.30 μg/ml final conc) 15. Incubate for 1 hour at 37° C. 16. Wash 3× with water/0.1% Tween20 17. 100 μl Delfia Enhancement Solution added to each well 18. Shake on plate shaker for 15 minutes 19. Read on Delfia programme (excitation 340 nm−emission […])=Europium counts 20. Wash 1× with water/0.1% Tween 20 21. 200 μl BCA solution added per well (BCA with 1:50 Copper II Sulfate) 22. Incubate for 30 minutes at 37° C. 23. Read at absorbance 562 nm=protein concentration

[8] = target: ROCK-II (h) (Homo sapiens, UniProt O75116); assay: ROCK-II (h) assay; assay type: biochemical; conditions: below the limit of the assay
Sequence of ROCK-II (h) (O75116 whole entry): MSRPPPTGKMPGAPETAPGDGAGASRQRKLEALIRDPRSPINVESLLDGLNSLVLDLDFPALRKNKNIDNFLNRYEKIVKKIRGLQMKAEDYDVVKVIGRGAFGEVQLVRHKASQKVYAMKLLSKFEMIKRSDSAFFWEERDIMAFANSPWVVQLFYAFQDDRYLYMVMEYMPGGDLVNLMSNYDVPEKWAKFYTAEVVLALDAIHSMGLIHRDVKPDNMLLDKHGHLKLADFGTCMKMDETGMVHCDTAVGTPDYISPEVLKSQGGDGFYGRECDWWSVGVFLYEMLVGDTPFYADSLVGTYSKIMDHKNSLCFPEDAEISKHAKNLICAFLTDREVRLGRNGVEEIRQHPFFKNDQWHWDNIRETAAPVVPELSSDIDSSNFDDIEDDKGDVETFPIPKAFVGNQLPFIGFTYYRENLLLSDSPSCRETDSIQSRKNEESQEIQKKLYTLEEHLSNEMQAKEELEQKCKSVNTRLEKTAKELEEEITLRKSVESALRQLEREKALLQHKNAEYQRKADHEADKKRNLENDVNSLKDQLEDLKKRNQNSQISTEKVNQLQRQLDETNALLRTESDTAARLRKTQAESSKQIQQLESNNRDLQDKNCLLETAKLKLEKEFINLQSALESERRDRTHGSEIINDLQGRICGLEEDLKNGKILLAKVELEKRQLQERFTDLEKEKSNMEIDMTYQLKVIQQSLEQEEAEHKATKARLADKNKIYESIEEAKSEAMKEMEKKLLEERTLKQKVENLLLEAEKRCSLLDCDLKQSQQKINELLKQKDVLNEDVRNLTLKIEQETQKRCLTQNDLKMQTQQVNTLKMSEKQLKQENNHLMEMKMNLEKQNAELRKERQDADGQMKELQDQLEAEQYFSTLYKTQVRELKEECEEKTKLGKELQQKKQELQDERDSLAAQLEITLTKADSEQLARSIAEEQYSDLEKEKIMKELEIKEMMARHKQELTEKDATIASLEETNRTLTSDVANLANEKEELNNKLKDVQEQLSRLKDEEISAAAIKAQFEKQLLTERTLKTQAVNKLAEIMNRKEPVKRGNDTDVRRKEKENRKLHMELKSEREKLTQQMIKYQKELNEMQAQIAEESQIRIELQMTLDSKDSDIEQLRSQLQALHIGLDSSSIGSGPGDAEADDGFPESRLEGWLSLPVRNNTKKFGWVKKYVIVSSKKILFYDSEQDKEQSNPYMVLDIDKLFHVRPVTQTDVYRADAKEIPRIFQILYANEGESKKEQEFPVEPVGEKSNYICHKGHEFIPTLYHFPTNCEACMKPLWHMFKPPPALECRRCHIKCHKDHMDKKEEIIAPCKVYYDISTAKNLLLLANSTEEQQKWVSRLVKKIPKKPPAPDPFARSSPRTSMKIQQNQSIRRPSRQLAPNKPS
Experimental: In a final reaction volume of 25 μl ROCK-II (h) (5-10 mU) is incubated with 50 mM Tris pH 7.5, 0.1 mM EGTA, 30 μM […], 10 mM MgAcetate and [γ-^33P-ATP] (specific activity approx. 500 cpm/pmol, concentration as required). The reaction is initiated by the addition of the MgATP mix. After incubation for 40 minutes at room temperature, the reaction is stopped by the addition of 5 μl of a 3% phosphoric acid solution. 10 μl of the reaction is then spotted onto a P30 filtermat and washed three times for 5 minutes in 75 mM phosphoric acid and once in methanol prior to drying and scintillation counting.

[9] = target: T7, P70S6 kinase (T412E) (Homo sapiens, UniProt P23443, T412E); assay: p70S6K radiometric assay; assay type: biochemical; conditions: approximately 15 μM ATP
T7 construct: purchased Upstate 14-486
T7 sequence (P23443 1-421 T412E limits assumed): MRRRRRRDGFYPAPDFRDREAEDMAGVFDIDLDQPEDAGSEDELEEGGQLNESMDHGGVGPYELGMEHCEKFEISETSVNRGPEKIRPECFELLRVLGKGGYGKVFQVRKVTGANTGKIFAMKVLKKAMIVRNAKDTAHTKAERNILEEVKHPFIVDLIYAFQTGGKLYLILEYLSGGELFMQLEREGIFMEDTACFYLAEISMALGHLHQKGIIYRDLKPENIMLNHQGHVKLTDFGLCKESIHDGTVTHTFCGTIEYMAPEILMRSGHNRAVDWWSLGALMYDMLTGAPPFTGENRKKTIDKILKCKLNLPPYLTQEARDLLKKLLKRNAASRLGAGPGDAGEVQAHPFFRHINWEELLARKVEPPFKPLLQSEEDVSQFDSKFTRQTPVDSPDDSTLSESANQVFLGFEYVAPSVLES
Experimental: P70S6 enzyme is bought from Upstate and used at 2 nM in the assay.
The substrate S6 cocktail ([…]) is used at […] (Km has not been determined). In the phosphoryl transfer reaction, the ^33P-γ phosphate from ATP is transferred to the serine residue. The reaction mixture is transferred to a phosphocellulose filter plate where the peptide binds and the unused ATP is washed away. After washing, scintillant is added and the incorporated activity measured by scintillation counting.
S6 kinase substrate cocktail from Upstate (#20-122)
Assay Buffer 10 mM MOPS pH 7.0
• 0.1 mg/ml BSA • 0.001% Brij-35 • 0.5% glycerol • 0.2 mM EDTA • 10 mM MgCl2 • 0.01% β-mercaptoethanol • Made as a 10× stock, stored at […] in 2 ml aliquots • 15 μM ATP
Compounds—prepare a dilution curve in DMSO in a polypropylene 96 well plate to 40× final assay concentration (final DMSO 2.5%).
• 5 μl compound • 10 μl substrate mix • 10 μl enzyme mix
Final ATP concentration is approximately 15 μM. KM for ATP calculated to 47 uM radiometrically. Controls are “no compound” (DMSO only) and “no enzyme” (use 10 μl of the enzyme mix prior to adding enzyme). Cover with a plate seal (TopSeal A—Packard) or plastic lid from filter plate (moderate radiation barrier). Mix by gentle shaking. Incubate at room temperature for 50 minutes. Stop the reaction by adding 20 μl of 2% orthophosphoric acid. […]

[10] = target: hERG K+ ion channel (Homo sapiens, UniProt Q12809); assay: hERG activity
[11] = tested on: ROCK; conditions: cited from earlier work
[12] = target: PKB (Homo sapiens, UniProt P31751); assay: Activity against the kinase PKB (method not given); conditions: compound and its acid addition salts
Sequence of PKB (P31751 whole entry): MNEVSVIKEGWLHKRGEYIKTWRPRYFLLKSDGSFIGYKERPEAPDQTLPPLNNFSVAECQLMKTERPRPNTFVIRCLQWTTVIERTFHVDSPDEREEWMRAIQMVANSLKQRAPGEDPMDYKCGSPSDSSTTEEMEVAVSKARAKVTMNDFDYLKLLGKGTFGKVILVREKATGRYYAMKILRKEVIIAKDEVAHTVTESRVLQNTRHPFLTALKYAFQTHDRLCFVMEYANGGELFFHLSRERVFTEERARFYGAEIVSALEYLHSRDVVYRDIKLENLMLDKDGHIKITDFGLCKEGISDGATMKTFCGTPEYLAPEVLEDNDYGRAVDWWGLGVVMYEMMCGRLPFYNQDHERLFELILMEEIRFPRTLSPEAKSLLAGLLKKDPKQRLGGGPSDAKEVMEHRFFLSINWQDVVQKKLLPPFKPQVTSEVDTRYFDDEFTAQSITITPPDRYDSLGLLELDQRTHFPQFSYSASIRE

T1 sequence (P31751 with tags, fused parts or gaps limits assumed): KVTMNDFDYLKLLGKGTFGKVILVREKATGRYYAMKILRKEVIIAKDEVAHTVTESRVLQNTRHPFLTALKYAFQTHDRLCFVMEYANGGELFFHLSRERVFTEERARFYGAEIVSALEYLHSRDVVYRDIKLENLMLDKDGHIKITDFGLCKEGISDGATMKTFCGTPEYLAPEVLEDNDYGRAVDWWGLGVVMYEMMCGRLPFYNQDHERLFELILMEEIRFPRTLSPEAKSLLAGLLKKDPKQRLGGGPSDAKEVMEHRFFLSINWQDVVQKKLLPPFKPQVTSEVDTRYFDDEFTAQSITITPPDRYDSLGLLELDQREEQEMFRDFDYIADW

Structure (SMILES): CNC[C@@H](c1ccc(Cl)cc1)c1ccc(-c2cn[nH]c2)cc1 (single isomer, unassigned) [Isomer A]
- fold more active against PKB than its antipode [1]: 10 fold

Structure (SMILES): C[C@@H](N)[C@H]1CC[C@H](C(=O)Nc2ccncc2)CC1 [Example Y-27632]
- effective doses for the use of this compound [11]: approximately 30 uM

Structure (SMILES): NC[C@H](c1ccc(Cl)cc1)c1ccc(-c2cn[nH]c2)cc1 (single isomer, unassigned) [Isomer D]
- activity in mechanistic cellular ELISA assay [7]: essentially equipotent

Continued, in another order:

- inhibition at 0.03 µM ([2]; at a concentration of 0.03 μM): 44%
- IC50 [3]: > 10 µM
- IC50 [4]: > 10 µM
- IC50 [5]: > 10 µM
- IC50 [6]: > 10 µM
- IC50 [8]: < 0.01 µM
- IC50 [9]: 0.012 µM
Structure (SMILES): NC[C@@](O)(c1ccc(Cl)cc1)c1ccc(-c2cn[nH]c2)cc1 [compound of formula (I), (S)-2-amino-1-(4-chloro-phenyl)-1-[4-(1H-pyrazol-4-yl)-phenyl]-ethanol]
- activity in mechanistic cellular ELISA assay [7]: good activity
- hERG ion channel blocking activity [10]: negligible

- IC50 ([2]; isolated enzyme, read-out: IC50 against PKA): 0.25 µM
- IC50 ([7]; Homo sapiens, U-87 MG, U87MG cells, 1 hour with inhibitor): > 50 µM
Structure (SMILES): NC[C@](O)(c1ccc(Cl)cc1)c1ccc(-c2cn[nH]c2)cc1 [R-enantiomer, (R)-2-amino-1-(4-chloro-phenyl)-1-[4-(1H-pyrazol-4-yl)-phenyl]-ethanol]
- activity in mechanistic cellular ELISA assay [7]: no measurable activity

- fold more active against PKB than its antipode [1]: about 10 fold
Structure (SMILES): NC[C@@H](c1ccc(Cl)cc1)c1ccc(-c2cn[nH]c2)cc1 (single isomer, unassigned) [Isomer C]
- activity in mechanistic cellular ELISA assay [7]: essentially equipotent

- activity against the kinase PKB [12]: have activity against the kinase PKB
Structure (SMILES): NCC(O)(c1ccc(Cl)cc1)c1ccc(I)cc1 (racemic) [compound of the formula (12), 2-amino-1-(4-chloro-phenyl)-1-[4-iodo-phenyl]-ethanol]

— patent publication US8497294B2, “Compositions comprising (S)-2-amino-1-(4-chlorophenyl)-1-[4-(1H-pyrazol-4-yl)-phenyl]-ethanol as modulator of protein kinases” (Astex Therapeutics Limited, priority 2007, dated 2013)
